Here are results for 12 molecules from patent publication US20250059171A1 (Hoffmann-La Roche Inc., priority 2021, published 2025).

Molecules are shown by their SMILES.

For orientation: IC50 means the point on the concentration scale where inhibition reaches its midpoint. Higher therefore signals a need for much substance.

The target in assay [1] is SARS-CoV-2 3CLpro (Severe acute respiratory syndrome coronavirus 2, UniProt P0DTD1). Description: biochemical.
For assay [2], the target named is SARS-CoV 3CLpro (Severe acute respiratory syndrome coronavirus, UniProt P0C6X7). Description: biochemical.
Assay [3] addresses HCoV-229E 3CLpro (Human coronavirus 229E, UniProt P0C6X1). The experiment in a line: HCoV-229E 3CLpro inhibition assay (FRET). It is filed as biochemical.
In assay [4] the target is MERS-CoV 3CLpro (Middle East respiratory syndrome-related coronavirus, UniProt K9N7C7). Description: biochemical.
Sequence of MERS-CoV 3CLpro (K9N7C7 3248-3553): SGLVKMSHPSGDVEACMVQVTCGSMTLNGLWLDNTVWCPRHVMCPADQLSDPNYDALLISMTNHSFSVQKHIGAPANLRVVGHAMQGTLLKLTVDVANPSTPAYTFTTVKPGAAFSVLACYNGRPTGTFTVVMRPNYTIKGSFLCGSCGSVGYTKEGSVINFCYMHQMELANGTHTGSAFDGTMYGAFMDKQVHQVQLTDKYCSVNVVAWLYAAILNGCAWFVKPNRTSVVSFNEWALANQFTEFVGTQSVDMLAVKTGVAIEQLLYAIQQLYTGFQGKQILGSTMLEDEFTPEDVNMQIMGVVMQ

Sequence of HCoV-229E 3CLpro (P0C6X1 2966-3267): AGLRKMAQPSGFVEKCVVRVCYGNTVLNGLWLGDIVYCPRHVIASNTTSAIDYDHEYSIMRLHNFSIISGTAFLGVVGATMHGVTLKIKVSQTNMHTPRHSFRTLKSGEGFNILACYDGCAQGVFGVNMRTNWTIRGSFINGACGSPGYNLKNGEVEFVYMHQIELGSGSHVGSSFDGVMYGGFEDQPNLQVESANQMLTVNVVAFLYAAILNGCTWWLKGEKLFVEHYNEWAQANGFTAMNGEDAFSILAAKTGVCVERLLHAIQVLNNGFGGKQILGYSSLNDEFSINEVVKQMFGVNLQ

Regarding `CC[C@H](C)[C@H](NC(=O)C1CC1(F)F)C(=O)N1C[C@H]2[C@@H]([C@H]1C(=O)NN(C[C@@H]1CCNC1=O)C(=O)[C@@H](F)Cl)C2(C)C` (mixture of isomers) [Example 111, Rac-2,2-difluoro-N-[(1S,2S)-2-methyl-1-[(1R,2S,5S)-6,6-dimethyl-2-[[[(2S)-2-chloro-2-fluoro-acetyl]-[[(3S)-2-oxopyrrolidin-3-yl]methyl]amino]carbamoyl]-3-azabicyclo[3.1.0]hexane-3-carbonyl]butyl]cyclopropanecarboxamide], the IC50 is 16 nM in assay [1], 28 nM in assay [2], 37 nM in assay [3] and 96 nM in assay [4].
For `CC[C@@H](C)[C@H](NC(=O)C1CC1(F)F)C(=O)N1C[C@H]2[C@@H]([C@H]1C(=O)NN(C[C@@H]1CCNC1=O)C(=O)[C@H](F)Cl)C2(C)C` (mixture of isomers) [Example 113, Rac-2,2-difluoro-N-[(1S,2R)-2-methyl-1-[(1R,2S,5S)-6,6-dimethyl-2-[[[(2R)-2-chloro-2-fluoro-acetyl]-[[(3S)-2-oxopyrrolidin-3-yl]methyl]amino]carbamoyl]-3-azabicyclo[3.1.0]hexane-3-carbonyl]butyl]cyclopropanecarboxamide] the same measures were 10 nM, 15 nM, 23 nM and 79 nM.
For `CC[C@@H](C)[C@H](NC(=O)C1CC1(F)F)C(=O)N1C[C@H]2[C@@H]([C@H]1C(=O)NN(C[C@@H]1CCNC1=O)C(=O)[C@@H](F)Cl)C2(C)C` (mixture of isomers) [Example 124, Rac-2,2-difluoro-N-[(1S,2R)-2-methyl-1-[(1R,2S,5S)-6,6-dimethyl-2-[[[(2S)-2-chloro-2-fluoro-acetyl]-[[(3S)-2-oxopyrrolidin-3-yl]methyl]amino]carbamoyl]-3-azabicyclo[3.1.0]hexane-3-carbonyl]butyl]cyclopropanecarboxamide] the same measures were 26 nM, 45 nM, 41 nM and 115 nM.
For `CCC(CC)[C@H](NC(=O)C(C)F)C(=O)N1CC(C)(C)C[C@H]1C(=O)NN(C[C@@H]1CCNC1=O)C(=O)[C@H](F)Cl` (mixture of isomers) [Example 137, Rac-2-fluoro-N-[(1S)-2-ethyl-1-[(2S)-4,4-dimethyl-2-[[[(2R)-2-chloro-2-fluoro-acetyl]-[[(3S)-2-oxopyrrolidin-3-yl]methyl]amino]carbamoyl]pyrrolidine-1-carbonyl]butyl]propanamide] the same measures were 18 nM, 27 nM, 46 nM and 192 nM.
Turning to `CCC(C)(C)[C@H](NC(=O)C(C)F)C(=O)N1C[C@H]2[C@@H]([C@H]1C(=O)NN(C[C@@H]1CCNC1=O)C(=O)[C@@H](F)Cl)C2(C)C` (mixture of isomers) [Example 146, Rac-2-fluoro-N-[(1S)-2,2-dimethyl-1-[(1R,2S,5S)-6,6-dimethyl-2-[[[(2S)-2-chloro-2-fluoro-acetyl]-[[(3S)-2-oxopyrrolidin-3-yl]methyl]amino]carbamoyl]-3-azabicyclo[3.1.0]hexane-3-carbonyl]butyl]propanamide], the IC50 stood at 16 nM in assay [1], 23 nM in assay [2], 69 nM in assay [3] and 151 nM in assay [4].
For `CC(C)(C)[C@H](NC(=O)C(F)(F)F)C(=O)N1C[C@H]2[C@@H]([C@H]1C(=O)NN(C[C@H]1CCCNC1=O)C(=O)[C@H](F)Cl)C2(C)C` (single isomer, unassigned) [Example 163a] the same measures were 9 nM, 18 nM, 52 nM and 226 nM.
For `CC(C)(C)[C@H](NC(=O)C(F)(F)F)C(=O)N1C[C@H]2[C@@H]([C@H]1C(=O)NN(C[C@@H]1CCCNC1=O)C(=O)[C@H](F)Cl)C2(C)C` (single isomer, unassigned) [Example 163b] the same measures were 17 nM, 33 nM, 104 nM and 469 nM.
For `CC[C@H](C)[C@H](NC(=O)C(F)(F)F)C(=O)N1C[C@H]2[C@@H]([C@H]1C(=O)NN(C[C@@H]1CCCNC1=O)C(=O)[C@H](F)Cl)C2(C)C` (single isomer, unassigned) [Example 165a] the same measures were 11 nM, 12 nM, 38 nM and 185 nM.
Turning to `CC[C@H](C)[C@H](NC(=O)C(F)(F)F)C(=O)N1C[C@H]2[C@@H]([C@H]1C(=O)NN(C[C@H]1CCCNC1=O)C(=O)[C@H](F)Cl)C2(C)C` (single isomer, unassigned) [Example 165b], the IC50 was determined as 20 nM in assay [1], 36 nM in assay [2], 57 nM in assay [3] and 291 nM in assay [4].
Turning to `CCC(C)[C@H](NC(=O)C1(F)CCC1)C(=O)N1C[C@@H]2CCC[C@@H]2[C@H]1C(=O)NN(C[C@@H]1CCNC1=O)C(=O)[C@H](F)Cl` (stereo in doubt) [Example 125, N-[(1S,2S)-1-[(3S,3aS,6aR)-3-[[[(2R)-2-chloro-2-fluoro-acetyl]-[[(3S)-2-oxopyrrolidin-3-yl]methyl]amino]carbamoyl]-3,3a,4,5,6,6a-hexahydro-1H-cyclopenta[c]pyrrole-2-carbonyl]-2-methyl-butyl]-1-fluoro-cyclobutanecarboxamide], the IC50 in assay [1] was 10 nM; in assay [2] it was 12 nM; in assay [3], 42 nM; in assay [4], 114 nM.
Consider `CC(C)(C)[C@H](NC(=O)C(F)(F)F)C(=O)N1C[C@H]2[C@@H]([C@H]1C(=O)NN(C[C@@H]1CCNC1=O)C(=O)[C@H](F)Cl)C2(C)C` [Example 1, N-[(1S)-1-[(1R,2S,5S)-2-[[[(2R)-2-chloro-2-fluoro-acetyl]-[[(3S)-2-oxopyrrolidin-3-yl]methyl]amino]carbamoyl]-6,6-dimethyl-3-azabicyclo[3.1.0]hexane-3-carbonyl]-2,2-dimethyl-propyl]-2,2,2-trifluoro-acetamide], for which the IC50 in assay [1] was determined as 10 nM; in assay [2], 15 nM; in assay [3] it was 35 nM; in assay [4] it was 115 nM.
For `CC1(C)[C@@H]2[C@@H](C(=O)NN(C[C@@H]3CCNC3=O)C(=O)[C@H](F)Cl)N(C(=O)[C@@H](NC(=O)C(F)(F)F)C3CC3)C[C@@H]21` [Example 2, N-[(1S)-2-[(1R,2S,5S)-2-[[[(2R)-2-chloro-2-fluoro-acetyl]-[[(3S)-2-oxopyrrolidin-3-yl]methyl]amino]carbamoyl]-6,6-dimethyl-3-azabicyclo[3.1.0]hexan-3-yl]-1-cyclopropyl-2-oxo-ethyl]-2,2,2-trifluoro-acetamide] the same measures were 19 nM, 30 nM, 41 nM and 177 nM.
